According to PMC12332667, “Role of Structural Modifications in Peptidomimetic Compounds as Potential Antimicrobial Agents against Staphylococcus aureus and Streptococcus pyogenes: Balancing Bioavailability, Safety, and Antimicrobial Activity” (ACS Omega, 2025):
Values after ≈ are worked out from the molar mass of the structure shown. Values joined by “and” are separate entries in the source; they are usually repeats but may differ in a detail not shown here. Equal values may be shown once.

Key:
[1] = system: S. aureus ATCC 43300; experiment: MIC/MBC broth microdilution, S. aureus; format: cell-based, Staphylococcus aureus; conditions: S. aureus
[2] = system: S. pyogenes ATCC 19615; experiment: MIC/MBC broth microdilution, S. pyogenes; format: cell-based, Streptococcus pyogenes; conditions: S. pyogenes
Method in brief: (§1)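 Bacteria inoculated at about 10^5 CFU/mL in BHI broth and incubated 18 h at 37 °C with serial dilutions of peptidomimetics, NCCLS microdilution format. MBC taken as lowest concentration leaving no more than 3 colonies (≥99.9% kill); MIC as lowest concentration without obvious growth (≥90% of untreated); solvent controls included.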

[3] = system: S. cohnii c.i.; experiment: MIC/MBC broth microdilution, S. cohnii; format: cell-based, Staphylococcus cohnii
Method in brief: as §1

[4] = system: E. faecalis c.i.; experiment: MIC/MBC broth microdilution, E. faecalis; format: cell-based, Enterococcus faecalis
Method in brief: as §1

[5] = system: S. schleiferi c.i.; experiment: MIC/MBC broth microdilution, S. schleiferi; format: cell-based, Staphylococcus schleiferi
Method in brief: as §1

[6] = system: S. agalactiae ATCC 27956; experiment: MIC/MBC broth microdilution, S. agalactiae; format: cell-based, Streptococcus agalactiae; conditions: S. agalactiae
Method in brief: as §1

[7] = system: S. mutans c.i.; experiment: MIC/MBC broth microdilution, S. mutans; format: cell-based, Streptococcus mutans
Method in brief: as §1

[8] = system: E. coli ATCC 25922; experiment: MIC/MBC broth microdilution, E. coli; format: cell-based, Escherichia coli
Method in brief: as §1

[9] = system: P. vulgaris ATCC 6896; experiment: MIC/MBC broth microdilution, P. vulgaris; format: cell-based, Proteus vulgaris
Method in brief: as §1

[10] = system: K. pneumoniae ATCC 700603; experiment: MIC/MBC broth microdilution, K. pneumoniae; format: cell-based
Method in brief: as §1

[11] = system: P. aeruginosa ATCC 10145; experiment: MIC/MBC broth microdilution, P. aeruginosa; format: cell-based
Method in brief: as §1

[12] = Hydrophobicity by reverse-phase chromatography; format: physicochemical; conditions: acetonitrile content in the mobile phase at the retention time
Text: Reverse-phase chromatography was employed to assess the hydrophobicity characteristics of the peptidomimetics. Hydrophobicity was quantified by determining the acetonitrile content in the mobile phase at the retention time of a peptidyl derivative (Table S2). The least hydrophobic compound (40% acetonitrile) was A-198, which aligns with the calculations of hydrophobicity by SwissADME and pkCSM (Table ). Next in the hydrophobicity sequence were A-197, A-220, A-219, A-174, and A-221, eluting with 42.5-43.9% of acetonitrile. Then there were followed by […], and A-179, with the acetonitrile percentage of 44.8-49.8. The compounds A-176, A-20, A-152, A-134, and A-210 needed over 50% of acetonitrile to be eluted from the column.

[13] = system: immortalized human keratinocytes (HaCaT); experiment: LDH cytotoxicity test, keratinocytes; format: cell-based
Method in brief: (§2)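 Cytotoxicity as LDH release after 48 h serum-free treatment (50, 100, 150 μg/mL peptidomimetics) of 46BR.1N fibroblasts or HaCaT keratinocytes seeded at 5000 per well. Absorbance 450 nm; untreated set as 0% and Triton X-100 1% as maximal release; Mann–Whitney U test, p ≤ 0.05.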

[14] = system: fibroblasts (46BR.1N); experiment: LDH cytotoxicity test, fibroblasts; format: cell-based
Method in brief: as §2

[15] = system: immortalized human HaCaT keratinocytes; experiment: XTT cell proliferation assay, keratinocytes; format: cell-based; conditions: for effect on proliferation, in words: 48 and 72 h, 0.01–150 μg/mL
Method in brief: (§3)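 Proliferation was read as XTT absorbance at 490 nm after 4 h of reagent incubation, following 48 or 72 h of peptide exposure in serum-free HG-DMEM (37 °C, 5% CO2). The 72 h arm included a half-medium change with second peptide dose at 48 h. Significance by Mann–Whitney U, p ≤ 0.05.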

[16] = system: human dermal fibroblast cell line (46BR.1N); experiment: XTT cell proliferation assay, fibroblasts; format: cell-based; conditions: for effect on proliferation, in words: 48 and 72 h, 0.01–150 μg/mL
Method in brief: as §3

[17] = system: S. intemrdius c.i.; experiment: MIC/MBC broth microdilution, S. intermedius; format: cell-based, Staphylococcus intermedius
Method in brief: as §1

[18] = 48 h, 50, 100 and 150 μg/mL, vs 1% Triton X-100
[19] = A-196 0.01–10 μg/mL, A-219 above 0.1 μg/mL, A-213 lower concentrations

## C=CCC(=O)NC[C@@H](NC(=O)[C@H](CC(C)C)NC(=O)[C@H](CCCNC(=N)N)NC(=O)OCc1ccccc1)C(C)C [Compound A-209]
[1]; H2O
  MIC: > 512 µg/mL
[1]; water additive DMSO
  MIC: > 512 µg/mL
[1]; water additive EtOH
  MIC: > 512 µg/mL
[2]; H2O
  MIC: > 512 µg/mL
[2]; water additive DMSO
  MIC: > 512 µg/mL
[2]; water additive EtOH
  MIC: > 512 µg/mL
[3]; H2O
  MIC: > 512 µg/mL
[3]; water additive DMSO
  MIC: > 512 µg/mL
[3]; water additive EtOH
  MIC: > 512 µg/mL
[4]; H2O
  MIC: > 512 µg/mL
[4]; water additive DMSO
  MIC: > 512 µg/mL
[4]; water additive EtOH
  MIC: > 512 µg/mL
[5]; H2O
  MBC: 512 µg/mL (≈ 892 µM)
  MIC: 256 µg/mL (≈ 446 µM)
[5]; water additive DMSO
  MBC: 512 µg/mL (≈ 892 µM)
  MIC: 256 µg/mL (≈ 446 µM)
[5]; water additive EtOH
  MBC: 512 µg/mL (≈ 892 µM)
  MIC: 256 µg/mL (≈ 446 µM)
[6]; H2O
  MIC: > 512 µg/mL
[6]; water additive DMSO
  MIC: > 512 µg/mL
[6]; water additive EtOH
  MIC: > 512 µg/mL
[7]; H2O
  MBC: 256 µg/mL (≈ 446 µM)
[7]; water additive DMSO
  MBC: 256 µg/mL (≈ 446 µM)
[7]; water additive EtOH
  MBC: 256 µg/mL (≈ 446 µM)
[8]; H2O
  MIC: > 512 µg/mL
[8]; water additive DMSO
  MIC: > 512 µg/mL
[8]; water additive EtOH
  MIC: > 512 µg/mL
[9]; H2O
  MIC: > 512 µg/mL
[9]; water additive DMSO
  MIC: > 512 µg/mL
[9]; water additive EtOH
  MIC: > 512 µg/mL
[10]; H2O
  MIC: > 512 µg/mL
[10]; water additive DMSO
  MIC: > 512 µg/mL
[10]; water additive EtOH
  MIC: > 512 µg/mL
[11]; H2O
  MIC: > 512 µg/mL
[11]; water additive DMSO
  MIC: > 512 µg/mL
[11]; water additive EtOH
  MIC: > 512 µg/mL
[12]
  % AcCN (acetonitrile required for elution from the column): 49.6% and 44.8–49.8%
[13]; [18]
  cytotoxicity (LDH): 10–15%
[13]; LDH, 48 h
  concentration at which cytotoxic effect starts: > 150 µg/mL and 150 µg/mL
[14]; [18]
  cytotoxicity (LDH): 10–15%
[14]; LDH, 48 h
  concentration at which cytotoxic effect starts: > 150 µg/mL and 150 µg/mL
[15]; XTT
  effect on proliferation, in words: did not exert any negative impact
[16]; XTT
  effect on proliferation, in words: did not exert any negative impact

## CC[C@@H](CNC(=O)/C=C/c1ccccc1)NC(=O)[C@H](CC(C)C)NC(=O)[C@H](CCCNC(=N)N)NC(=O)OCc1ccccc1 [Compound A-213]
[4]; H2O
  MBC: 256 µg/mL (≈ 412 µM)
  MIC: 256 µg/mL (≈ 412 µM)
[4]; water additive DMSO
  MBC: 256 µg/mL (≈ 412 µM)
  MIC: 256 µg/mL (≈ 412 µM)
[4]; water additive EtOH
  MBC: 256 µg/mL (≈ 412 µM)
  MIC: 256 µg/mL (≈ 412 µM)
[5]; H2O
  MBC: 32 µg/mL (≈ 51.5 µM)
  MIC: 32 µg/mL (≈ 51.5 µM)
[5]; water additive DMSO
  MBC: 32 µg/mL (≈ 51.5 µM)
  MIC: 16 µg/mL (≈ 25.7 µM)
[5]; water additive EtOH
  MBC: 32 µg/mL (≈ 51.5 µM)
  MIC: 32 µg/mL (≈ 51.5 µM)
[17]; H2O
  MIC: 32 µg/mL (≈ 51.5 µM)
[17]; water additive DMSO
  MIC: 32 µg/mL (≈ 51.5 µM)
[17]; water additive EtOH
  MIC: 32 µg/mL (≈ 51.5 µM)
[7]; H2O
  MBC: 8 µg/mL (≈ 12.9 µM)
  MIC: 4 µg/mL (≈ 6.43 µM)
[7]; water additive DMSO
  MBC: 8 µg/mL (≈ 12.9 µM)
  MIC: 4 µg/mL (≈ 6.43 µM)
[7]; water additive EtOH
  MBC: 8 µg/mL (≈ 12.9 µM)
  MIC: 4 µg/mL (≈ 6.43 µM)
[8]; H2O
  MBC: 256 µg/mL (≈ 412 µM)
  MIC: 256 µg/mL (≈ 412 µM)
[8]; water additive DMSO
  MBC: 512 µg/mL (≈ 823 µM)
  MIC: 256 µg/mL (≈ 412 µM)
[8]; water additive EtOH
  MBC: 256 µg/mL (≈ 412 µM)
  MIC: 256 µg/mL (≈ 412 µM)
[9]; H2O
  MIC: > 512 µg/mL
[9]; water additive DMSO
  MIC: > 512 µg/mL
[9]; water additive EtOH
  MIC: > 512 µg/mL
[10]; H2O
  MIC: > 512 µg/mL
[10]; water additive DMSO
  MIC: 512 µg/mL (≈ 823 µM)
[10]; water additive EtOH
  MIC: 512 µg/mL (≈ 823 µM)
[11]; H2O
  MIC: 512 µg/mL (≈ 823 µM)
[11]; water additive DMSO
  MBC: 512 µg/mL (≈ 823 µM)
  MIC: 256 µg/mL (≈ 412 µM)
[11]; water additive EtOH
  MBC: 256 µg/mL (≈ 412 µM)
  MIC: 256 µg/mL (≈ 412 µM)
[12]
  % AcCN (acetonitrile required for elution from the column): 54.6%
[13]; 48 h, 150 μg/mL
  cytotoxicity (LDH) at 150 μg/mL: ~10%
[14]; 48 h, 150 μg/mL
  cytotoxicity (LDH) at 150 μg/mL: ~10%
[15]; [19]
  pro-proliferative effect above control: 20–30%
[15]; XTT, 150 μg/mL
  proliferation relative to control at 150 μg/mL (highest tested concentration): around 25%
[15]; XTT
  effect on proliferation, in words: pro-proliferating effect at lower concentrations followed by an antiproliferative effect at higher concentrations
[16]; [19]
  pro-proliferative effect above control: 20–30%
[16]; XTT, 150 μg/mL
  proliferation relative to control at 150 μg/mL (highest tested concentration): around 25%
[16]; XTT
  effect on proliferation, in words: pro-proliferating effect at lower concentrations followed by an antiproliferative effect at higher concentrations
